Experimental data: publication PMC6877352, “Modifying the Siderophore Triacetylfusarinine C for Molecular Imaging of Fungal Infection” (Molecular imaging and biology, 2019)
Where “and” joins values, the source holds several entries; their conditions need not be identical. Equal values may be shown once. Entries after “also recorded” stand apart in the source; their conditions may differ.

Legend:
[1] = Protein binding in human serum (size exclusion spin columns); details: 37 °C, n = 3
Experimental: At selected time points, 25 μl of serum aliquots was applied on size exclusion spin columns MicroSpin™ G-50 (GE Healthcare, Vienna, Austria). Columns were centrifuged at 2000 rcf for 2 min to separate protein bound radiotracer (eluate) from non-protein bound radiotracer (column). Protein binding ability was determined by measuring activities of column and eluate in the gamma counter.

[2] = Small animal PET/CT imaging in non-infected Lewis rats; details: for excretion in PET/CT images: healthy Lewis rats, 45 min p.i.; for Lung uptake (non-infected): non-infected Lewis rats, r.o. injection ~6 MBq, PET/CT 45 min p.i.
Experimental: (§1) PET and CT images were acquired with an Albira PET/SPECT/CT small animal imaging system (Bruker Biospin Corporation, Woodbridge, CT, USA). A. fumigatus infection in rats was established as described by Petrik, et al.. A group of 3 female Lewis rats (2–3 months old), healthy or lung infected, were injected retro-orbitally (r.o.) with [^68Ga] […] Animals were anesthetized with isoflurane (FORANE, Abbott Laboratories, Abbott Park, IL, USA) (2 % flow rate) and positioned prone head first in the Albira system. PET/CT imaging was started 45 min p.i. with a 10-min PET (FOV 148 mm axial) and a subsequent triple CT scanning (FOV 3 × 65 mm axial, 45 kVp, 400 μA, at 400 projections). For reconstruction, Albira software (Bruker Biosoin Corporation, Woodbridge, CZ, USA) was used involving filtered backprojection and MLEM algorithms. PMOD software (PMOD Technologies Ltd., Zurich, Switzerland) was used to analyze and view the reconstructed images.

[3] = Biodistribution in healthy BALB/c mice; details: 90 min p.i.; for excretion / blood levels: healthy BALB/c mice, i.v.; for blood levels: n = 3
Experimental: At 90 min post injetion (p.i.), mice were sacrified by cervical dislocation. Organs and tissues (blood, spleen, pancrease, stomach, intestine, kidneys, liver, heart, lung, muscle, femur) were collected and weighed. Radioactivities accumulated by tissues were measured in the gamma counter. The obtained values were expressed as the percentage of injected dose per gram tissue (%ID/g). Urine sample from each animal was injected to RP-HPLC for analysis of urinary metabolic profile of [^68Ga]siderophore.

[4] = system: A. fumigatus infection; assay: Small animal PET/CT imaging in rat IPA model; details: IPA Lewis rats (A. fumigatus lung infection), r.o. injection ~6 MBq, PET/CT 45 min p.i.
Experimental: as §1

[5] = Stability in PBS pH 7.4 (RP-HPLC, %RCP); details: PBS pH 7.4, 37 °C, n = 3
Experimental: (§2) [^68Ga]siderophore (50 μl, 2 nmol) was incubated in 450 μl PBS or human serum at 37 °C. At each time point, aliquot of PBS was injected directly to RP-HPLC whereas serum aliquot was mixed with MeOH, vortexed, and centrifuged at 20,000 rcf for 2 min. Supernatant was diluted with H2O and subsequently analyzed by RP-HPLC. The stability was presented as %RCP of radiotracer (n = 3).

[6] = Stability in fresh human serum (RP-HPLC, %RCP); details: 37 °C, n = 3
Experimental: as §2

[7] = system: A. fumigatus wildtype (ATCC46645); assay: In vitro uptake assay in A. fumigatus; assay type: cell-based, Aspergillus fumigatus; details: iron-starvation condition, 45 min, normalized to [^68Ga]TAFC uptake from the same experiment, n = 3
Experimental: For in vitro uptake studies, A. fumigatus wildtype (ATCC46645) was used. Fungal strain was cultured at 37 °C in Aspergillus minimal medium (AMM) containing 1 % (m/v) glucose as carbon source, 20 mM glutamine as nitrogen source, salts, and trace elements. Iron-sufficient media were prepared by adding FeSO4 to a final concentration of 30 μM. For iron-deficient conditions, supplementation of iron was omitted. Iron starvation was verified by the detection of extracellular siderophore production which is suppressed by iron supplementation.
Uptake assays were performed in either iron-deficient or iron-sufficient A. fumigatus wildtype cultures. In a 96-well MultiScreen Filter Plates HTS (1 μm glass fiber filter, Merck Millipore, Darmstadt, Germany), 180 μl of A. fumigatus suspended in iron-replete or iron-depleted medium was added. [^68Ga]siderophores (approx. 1 × 10^5 cpm, 80 nM) were incubated with either PBS pH 7.4 (total series) or blocking solution (10 μM [Fe]TAFC) (non-specific series) at RT for 45 min in quadriplicates. The incubation was interrupted by suction of the medium and the plate was washed twice with ice-cold TRIS-buffered saline (10 mM, pH 7.3). The filters were isolated and the remaining activities were measured in the gamma counter. The uptake was calculated as % uptake of total activity added; each assay was repeated three times. To normalize uptake variations between different fungal cultures, the uptake of each [^68Ga]siderophore was expressed as the ratio to [^68Ga]TAFC uptake from the same experiment. The mean values of three different assays were used to quantitatively compare the difference in uptake between the compounds.

[8] = system: A. terreus wildtype strain; assay: In vitro uptake assay in A. terreus (lacks the MirB transporter); assay type: cell-based, Aspergillus terreus
Experimental: To confirm the specificity of uptake of TAFC derivatives by A. fumigatus via the MirB transporter, A. terreus, which lacks the MirB transporter, was used for in vitro uptake assay. A. terreus was grown in either iron-deficient or iron-sufficient cultures. Uptake studies were performed as described for A. fumigatus and expressed as % uptake of total activity added.

[9] = Distribution coefficient (logD), octanol/PBS pH 7.4; assay type: physicochemical; details: [^68Ga]siderophore 4 μM, octanol/PBS pH 7.4, n = 5
Experimental: [^68Ga]siderophore (4 μM) in 500 μl phosphate-buffered saline (PBS), pH 7.4, was added to 500 μl octanol. The mixture was vortexed at 1400 rpm for 15 min and subsequently centrifuged at 2000 rcf for 2 min.

Row | Compound | Protein binding (%) ([1]; incubation time 30 min) | Protein binding (%) ([1]; incubation time 60 min) | Protein binding (%) ([1]; incubation time 120 min) | Lung uptake (non-infected) [2] [%ID/g] | species detected in urine (RP-HPLC urinary metabolic profile) ([3]; BALB/c mice) | excretion [3] | blood levels [3] [%ID/g] | Stability in PBS (%) ([5]; 30 min) | Stability in PBS (%) ([5]; 60 min) | Stability in PBS (%) ([5]; 120 min) | Stability in serum (%) ([6]; 30 min) | Stability in serum (%) ([6]; 60 min) | Stability in serum (%) ([6]; 120 min) | uptake ratio to [^68Ga]TAFC [7] | also measured
1 | CCCC(=O)NC1CCCN(O)C(=O)C=C(C)CCOC(=O)C(NC(C)=O)CCCN(O)C(=O)C=C(C)CCOC(=O)C(NC(C)=O)CCCN(O)C(=O)C=C(C)CCOC1=O (centres unmarked) (68Ga complex, metal not drawn) [DABuFC, diacetylbutanoyl(FSC)] | 2.63 ± 1.03 | 2.92 ± 1.11 | 3.61 ± 1.19 | 0.23 ± 0.03 | only intact | rapid renal excretion | < 0.1 | 99.87 ± 0.07 | 99.85 ± 0.08 | 99.79 ± 0.14 | 99.58 ± 0.04 | 99.59 ± 0.20 | 99.60 ± 0.14 | 0.87 | excretion in PET/CT images ([2]; listed as [^68Ga]DABuFC): excreted rapidly via the urinary system; also recorded: certain hepatobiliary excretion; retention in the blood, spleen, and pancreas in comparison with [^68Ga]TAFC ([3]; BALB/c mice): Slightly lower retention; Lung uptake (infected) [4]: 0.79 ± 0.15 %ID/g; uptake ratio to [^68Ga]TAFC ([7]; listed as [^68Ga]DABuFC): around 1
2 | CC1=CC(=O)N(O)CCCC(NC(=O)CCC(=O)O)C(=O)OCCC(C)=CC(=O)N(O)CCCC(NC(=O)CCC(=O)O)C(=O)OCCC(C)=CC(=O)N(O)CCCC(NC(=O)CCC(=O)O)C(=O)OCC1 (centres unmarked) (68Ga complex, metal not drawn) [FSC(suc)3, trisuccinyl(FSC)] | 2.53 ± 0.63 | 2.96 ± 0.21 | 2.60 ± 0.62 | 0.21 ± 0.03 | only intact | rapid renal excretion | < 0.1 | 99.85 ± 0.07 | 99.77 ± 0.12 | 99.72 ± 0.09 | 99.59 ± 0.08 | 99.43 ± 0.17 | 99.36 ± 0.08 | 0.01 | excretion in PET/CT images [2]: excreted rapidly via the urinary system; retention in the intestine and kidneys in comparison with [^68Ga]TAFC ([3]; BALB/c mice): Slightly lower retention; Lung uptake (infected) ([4]; listed as [^68Ga]FSC(suc)3): 0.31 ± 0.04 %ID/g and 0.3 %ID/g; uptake ratio to [^68Ga]TAFC ([7]; listed as [^68Ga]FSC(suc)3): less than 0.05
3 | C/C1=C/C(=O)N(O)CCCC(N)C(=O)OCC/C(C)=C\C(=O)N(O)CCCC(N)C(=O)OCC/C(C)=C\C(=O)N(O)CCCC(N)C(=O)OCC1 (centres unmarked) (68Ga complex, metal not drawn) [FSC, fusarinine C] |  |  |  |  |  |  |  |  |  |  |  |  |  | 1.37 | Uptake in A. terreus in iron-replete condition ([8]; iron-replete condition): 2 % of total activity added; Uptake in A. terreus with TAFC blocking ([8]; iron-starvation condition with TAFC blocking): 28 % of total activity added; uptake in A. terreus ([8]; iron-starvation condition, 45 min, n = 3): > 30 % of total activity added; uptake ratio to [^68Ga]TAFC ([7]; listed as [^68Ga]FSC): ~1.4
4 | CCCC(=O)NC1CCCN(O)C(=O)C=C(C)CCOC(=O)C(NC(=O)CCC)CCCN(O)C(=O)C=C(C)CCOC(=O)C(NC(=O)CCC)CCCN(O)C(=O)C=C(C)CCOC1=O (centres unmarked) (68Ga complex, metal not drawn) [TBuFC, tributanoyl(FSC)] |  |  |  |  |  |  |  |  |  |  |  |  |  | 0.86 | logD [9]: 0.34 ± 0.01; uptake ratio to [^68Ga]TAFC ([7]; listed as [^68Ga]TBuFC): around 1
